A short description of data set [1]: Antianemic activity (iron-deficient diet). Format: in vivo, rats. The conditions noted are these: iron-deficient diet + substance.
Method: (§1) In the aim of correctly evaluating activity, bio-availability and toxicity of the products under exam, they were suitably vehicled by means of dissolution in mixtures of H2 O/propylene glycol/sorbitol, in equal proportions, so as to obtain for the experimental tests solutions at identical Fe^+++ titre (4 mg/ml).
The nature of data set [2]: Gastric tolerability: values of the lesions found on the gastric mucosa. The conditions noted are these: for value of the lesions on the gastric mucosa / value of the lesions on the gastric mucosa, Media (mean): oral t.i.d., 100 mg/kg iron; for value of the lesions on the gastric mucosa, Media (mean): mean of 7 animals.
Method: as §1
A short description of data set [3]: Acute toxicity after oral administration in the male rat. Format: in vivo. The conditions noted are these: for N° DEAD ANIMALS: 10 animals. An excerpt: ACUTE TOXICITY OF UB 1004 AFTER ORAL
ADMINISTRATION IN THE MALE RAT

Data set [4] can be described thus: Solubility / precipitation. Format: physicochemical.
For data set [5] the following is noted: background; cited from earlier work.
The conditions of data set [6]: rat, in vivo, po, 100 mg/kg.
Method: as §1
The conditions of data set [7]: oral, background; cited from earlier work.
[8] abbreviates: oral, 25 mg/Kg Fe = 367.5 mg/Kg.
Where [9] appears, read: oral, 100 mg/Kg Fe = 1470 mg/Kg.
Setting [10] is: oral, 200 mg/Kg Fe = 2940 mg/Kg.
[11] abbreviates: oral, 400 mg/Kg Fe = 5880 mg/Kg.

Where two headings read alike, the source gives them in different places.

“UB 1004: iron (ferric) complex of lysozyme glutarate, obtained in Example 1(b) with ferric glycerophosphate”: the ERYTHROCYTES is 7.20 ± 0.58 10^6 /mm^3 in data set [1] (7 (time unit not given)), 7.20 ± 0.48 10^6 /mm^3 in data set [1] (14 (time unit not given)) and 7.13 ± 0.26 10^6 /mm^3 in data set [1] (21 (time unit not given)). For the same compound, the HEMOGLOBIN in data set [1] (7 (time unit not given)) is on record as 14.43 ± 1.13 g/100 ml; in data set [1] (14 (time unit not given)), 15.70 ± 1.00 g/100 ml; in data set [1] (21 (time unit not given)) it was 15.58 ± 0.97 g/100 ml. The SYDEREMIA worked out at 178.6 ± 57.1 μg/100 ml in data set [1] (7 (time unit not given)), 177.5 ± 42.8 μg/100 ml in data set [1] (14 (time unit not given)) and 184.3 ± 31.8 μg/100 ml in data set [1] (21 (time unit not given)). Further, the “value of the lesions on the gastric mucosa” value in data set [2] (animal 1), in data set [2] (animal 2), in data set [2] (animal 3), in data set [2] (animal 4), in data set [2] (animal 5) and in data set [2] (animal 6) was 0 throughout. Moreover, the “value of the lesions on the gastric mucosa” value in data set [2] (animal 7) came to 0. In addition, in data set [2], the “value of the lesions on the gastric mucosa, Media (mean)” value (shortened to “value of the lesions … (mean)”) was determined as 0. Besides, the “% DEATH-RATE” value in data set [3] (setting [8]) was 0.00%; in data set [3] (oral, 50 mg/Kg Fe = 735 mg/Kg), 0.00%; in data set [3] (setting [9]) it was 0.00%; in data set [3] (setting [10]) it was 0.00%; in data set [3] (setting [11]), 0.00%. Moreover, the “N° DEAD ANIMALS” value in data set [3] (setting [8]) came to 0; in data set [3] (oral, 50 mg/Kg Fe = 735 mg/Kg), 0; in data set [3] (setting [9]), 0; in data set [3] (setting [10]) it was 0; in data set [3] (setting [11]) it was 0. Moreover, in data set [3] (oral, male rat, up to 400 mg/Kg Fe), the DL50 result is recorded as “NOT DETERMINABLE”. Moreover, the “Precipitation with (NH4)2SO4 at 30%” value in data set [4] ((NH4)2SO4 30%) is reported as “Complete”. In addition, the “Solubility at pH 8” value in data set [4] is reported as “Complete”. Also, the “Solubility of the precipitate with (NH4)2SO4 in water” value in data set [4] (water) is on record as “Complete”.
On to `O=S(=O)([O-])[O-].[Fe+2]` [FERROUS SULFATE, Ferrous Sulphate, reference compound], for which the results for the ERYTHROCYTES in data set [1] (7 (time unit not given)), in data set [1] (14 (time unit not given)) and in data set [1] (21 (time unit not given)) were 7.07 ± 0.76 10^6 /mm^3, 7.34 ± 0.46 10^6 /mm^3 and 6.94 ± 0.42 10^6 /mm^3, respectively. Further, the values for the HEMOGLOBIN in data set [1] (7 (time unit not given)), in data set [1] (14 (time unit not given)) and in data set [1] (21 (time unit not given)) were 14.38 ± 1.91 g/100 ml, 15.63 ± 0.33 g/100 ml and 14.09 ± 1.50 g/100 ml, respectively. Besides, the SYDEREMIA in data set [1] (7 (time unit not given)) came to 247.6 ± 87.0 μg/100 ml; in data set [1] (14 (time unit not given)), 198.4 ± 52.2 μg/100 ml; in data set [1] (21 (time unit not given)) it was 171.0 ± 19.9 μg/100 ml. Further, the “value of the lesions on the gastric mucosa” value in data set [2] (animal 1) was 1; in data set [2] (animal 2), 2; in data set [2] (animal 3), 1; in data set [2] (animal 4) it was 1; in data set [2] (animal 5) it was 3; in data set [2] (animal 6), 1. Besides, the “value of the lesions on the gastric mucosa” value in data set [2] (animal 7) is recorded as 3. Also, the gastric damage entry in data set [2] (conclusions) is listed as “harmful at the gastric level”. Moreover, in data set [2], the “value of the lesions … (mean)” value amounted to 1.70. In addition, the toxicity entry in data set [3] (conclusions) is listed as “considerably toxic”.
With “lysozyme glutarate: lysozyme acylated with glutaric anhydride, Example 1(a)”, the “Solubility at pH 3” value in data set [4] (pH 3) was “nil”. Moreover, the “Solubility at pH 8” value in data set [4] is listed as “Complete”.
As to Ferritin, in data set [1] (7 (time unit not given)), the HEMOGLOBIN came out at 13.88 ± 0.93 g/100 ml and the SYDEREMIA is given as 196.3 ± 88.9 μg/100 ml. Besides, in data set [1] (14 (time unit not given)), the ERYTHROCYTES is reported as 6.99 ± 0.58 10^6 /mm^3, the HEMOGLOBIN worked out at 15.46 ± 0.93 g/100 ml and the SYDEREMIA came out at 217.1 ± 52.7 μg/100 ml. Also, in data set [1] (21 (time unit not given)), the ERYTHROCYTES is 6.99 ± 0.13 10^6 /mm^3, the HEMOGLOBIN was found to be 14.43 ± 1.12 g/100 ml and the SYDEREMIA was determined as 227.6 ± 25.7 μg/100 ml. The water solubility result in data set [5] was “hydrosoluble”. For the same compound, in data set [6], the “value of the lesions … (mean)” value is 0.28. Moreover, in data set [7], the gastrointestinal side-effects result is “does not have gastrointestinal side-effects”.

The values are drawn from patent publication US4939092A, “Proteinaceous derivatives containing iron in highly bioavailable form, preparation thereof and pharmaceutical compositions containing them” (Unibois S.p.A., priority 1987, dated 1990).
